pEC50: −log10 of the molar value.
Assays:
Format in all cases: cell-based
[1] = system: Wnt activity (Sp5-Luc reporter, SW480 colon carcinoma cells); test: Wnt activity screening assay, Sp5-Luc reporter gene in SW480 cells; conditions: Homo sapiens; for pEC50: Sp5-Luc reporter, SW480 cells, overnight incubation; for inhibition at 10 µM: SW480, read-out: percent inhibition at 10 μM
Excerpt: The screening assay for Wnt activity is described as follows. Reporter cell lines can be generated by stably transducing cancer cell lines (e.g., colon cancer) or primary cells (e.g., IEC-6 intestinal cells) with a lentiviral construct that includes a Wnt-responsive promoter driving expression of the firefly luciferase gene.
SW480 colon carcinoma cells were transduced with a lentiviral vector expressing luciferase with a human Sp5 promoter consisting of a sequence of eight TCF/LEF binding sites. SW480 cells stably expressing the Sp5-Luc reporter gene and a hygromycin resistance gene were selected by treatment with 150 μg/mL of hygromycin for 7 days. These stably transduced SW480 cells were expanded in cell culture and used for all further screening activities. […] For Sp5-Luc reporter gene assays, the cells were plated at 4,000 cells/well in 384-well plates with medium containing 1% fetal bovine serum and incubated overnight at 37° C. and 5% CO2. Following incubation, 20 μl of BrightGlo luminescence reagent (Promega) was added to each well of the 384-well assay plates. The plates were placed on an orbital shaker for 2 min and then luminescence was quantified using the Envision (Perkin Elmer) plate reader. Readings were normalized to DMSO only treated cells, and normalized activities were utilized for EC50 calculations using the dose-response log (inhibitor) vs. response−variable slope (four parameters) nonlinear regression feature available in GraphPad Prism 5.0 (or Dotmatics).

[2] = system: SW480 colon cancer cells; test: Cell viability assay (CellTiter-Blue); conditions: Homo sapiens; for pEC50: 96 h, SW480 cell viability, four days; for inhibition at 10 µM: SW480, 96 h, read-out: percent inhibition at 10 μM
Method: Representative compounds were screened using the following assay procedure to assess the effect on cell viability as described below.
Approximately 2×10^3 SW480 colon cancer cells were seeded into each well and allowed to incubate in the presence or absence of compound for four days at 37° C./5% CO2. Eight replicates of DMSO-treated cells served as controls and cells treated with compound were performed in duplicate.
After incubation, 20 μL of CellTiter-Blue (Promega) was added to each well allowed to incubate for approximately 3 hours. This reagent was a buffered solution which contains resazurin, metabolically active cells were able to reduce rezarurin (blue) into resorufin (pink) which was highly fluorescent. This measured fluorescence was used as a readout for cell viability.

[3] = system: primary human fibroblasts derived from IPF patients (LL29 cells); test: Inhibition of fibrotic process, αSMA staining in TGF-β1 treated fibroblasts; conditions: Fibroblast; for pEC50: 96 h, LL29 cells, TGF-β1 20 ng/mL, 4 days, % αSMA positive cells; for inhibition at 10 µM: read-out: percent inhibition at 10 μM
Method: Representative compounds were screened using primary human fibroblasts (derived from IPF patients) treated with TGF-β1 to determine their ability to inhibit the fibrotic process.
LL29 cells are plated at 1,500 cells/well in 80 μL/well F12 medium supplemented with 1% Fetal Bovine Serum. […] Wells treated with TGF-31 and containing DMSO were used as controls. […] Following incubation for 4 days, SYTOX green nucleic acid stain (Life Technologies [Thermo Fisher Scientific]) was added to the wells at a final concentration of 1 μM and incubated at room temperature for 30 min.

[4] = system: primary human mesenchymal stem cells (hMSCs); test: Induction of chondrogenesis in hMSCs (nodule count); conditions: 6 days; for EC50: concentration required to induce 50% levels of chondrogenesis vs TGF-β3, read-out: Conc (nM) of 50% TGF-β3 activity; for Emax: relative to TGF-β3 (10 ng/mL) positive control, read-out: Max. Activity as % TGF-β3 activity
Excerpt: Representative compounds were screened using primary human mesenchymal stem cells (hMSCs) to determine their ability to induce chondrogenesis (process by which cartilage is developed).
Primary human mesenchymal stem cells (hMSCs) were purchased from Lonza (Walkersville, Md.) and expanded in Mesenchymal Stem Cell Growth Media (Lonza). Cells between passage 3 and 6 were used for the experiments.
To image chondrogenic nodules, the cells were fixed using 4% formaldehyde (Electron Microscopy Sciences), and stained with 2 μg/mL Rhodamine B (Sigma-Aldrich) and 20 μM Nile Red (Sigma-Aldrich) [Johnson K., et. al, A Stem Cell-Based Approach to Cartilage Repair, Science, (2012). […] Number of nodules in each well was normalized to the average of 3 DMSO treated wells on the same plate using Excel (Microsoft Inc.). The normalized averages (fold change over DMSO) of 3 replicate wells for each compound concentration were calculated. Due to solubility limitations of some of the compounds, curve fitting was incomplete leading to inaccurate EC50 determinations.
Using TGF-β3 as a positive control, the concentration of representative compounds required to induce 50% levels of chondrogenesis is reported. In addition, the maximum activity of each compound and the respective dose that each compound reached maximum chondrogenesis activity is reported.

[5] = system: IL-6; test: IL-6 inhibition in LPS-stimulated THP-1 cells (HTRF); conditions: Homo sapiens; for pEC50: THP-1 cells, LPS 500 ng/mL, 22 hours, IL6 HTRF; for inhibition at 10 µM: THP-1, read-out: percent inhibition at 10 μM
Method: THP-1 cells were cultured in basal media with 1% FBS for 24 hours before the start of the assay. […] THP-1 cells were plated at 5000 cells/well in the 384-well plates and incubated at 37° C. for 2 h. 500 ng/mL of LPS was added after 2 hours and cells were incubated for another 22 hours at 37° C. Plates were spun in a centrifuge for 1 minute at […] and a mixture of anti-IL6 XL665, and anti-IL6 Cryptate diluted in reconstitution buffer (Cisbio Inc.) was added to each well. Following incubation for 3 hrs at room temperature, Homogeneous Time-Resolved Fluorescence (HTRF) was measured using the Envision (Perkin Elmer) at 665 nm and […]. The ratio of fluorescence at 665 nm to 620 nm was used as a readout for IL6 quantification. All samples were processed in duplicate. Readings were normalized to DMSO treated cells and normalized activities were utilized for EC50 calculations using the dose-response log (inhibitor) vs. response−variable slope (four parameters) nonlinear regression feature available in GraphPad Prism 5.0 (or Dotmatics).

| SMILES | pEC50 [1] | pEC50 [2] | EC50 [4] [nM] | pEC50 [5] | pEC50 [3] | Emax [4] [%] | inhibition at 10 µM [1] [%] | inhibition at 10 µM [2] [%] | inhibition at 10 µM [3] [%] | inhibition at 10 µM [5] [%] |
| --- | --- | --- | --- | --- | --- | --- | --- | --- | --- | --- |
| c1cncc(-c2cncc3[nH]c(-c4n[nH]c5ncc(-c6cncnc6)cc45)cc23)c1 [Compound 111, 3-(4-(Pyridin-3-yl)-1H-pyrrolo[2,3-c]pyridin-2-yl)-5-(pyrimidin-5-yl)-1H-pyrazolo[3,4-b]pyridine] | < 5.00 | < 5.00 | – | 5.18 | 5.76 | 24 | 11.9 | 8.6 | – | – |
| CN(C)c1cncc(-c2cnc3[nH]nc(-c4cc5c(-c6ccncc6)cncc5[nH]4)c3c2)c1 [Compound 119, N,N-Dimethyl-5-(3-(4-(pyridin-4-yl)-1H-pyrrolo[2,3-c]pyridin-2-yl)-1H-pyrazolo[3,4-b]pyridin-5-yl)pyridin-3-amine] | < 5.00 | < 5.00 | 10 | < 5.00 | < 5.00 | 191 | 2.5 | 8.9 | 0 | 40.7 |
| O=C(Nc1cncc(-c2cnc3[nH]nc(-c4cc5c(-c6ccncc6)cncc5[nH]4)c3c2)c1)C1CCC1 [Compound 133, N-(5-(3-(4-(Pyridin-4-yl)-1H-pyrrolo[2,3-c]pyridin-2-yl)-1H-pyrazolo[3,4-b]pyridin-5-yl)pyridin-3-yl)cyclobutanecarboxamide] | < 5.00 | < 5.00 | – | < 5.00 | 5.31 | 43 | 7 | 18.9 | – | 43.3 |
| CC(C)C(=O)Nc1cncc(-c2cnc3[nH]nc(-c4cc5c(-c6cc(F)cc(CNS(C)(=O)=O)c6)cncc5[nH]4)c3c2)c1 [Compound 485, N-(5-(3-(4-(3-Fluoro-5-(methylsulfonamidomethyl)phenyl)-1H-pyrrolo[2,3-c]pyridin-2-yl)-1H-pyrazolo[3,4-b]pyridin-5-yl)pyridin-3-yl)isobutyramide] | < 5.00 | < 5.00 | 30 | 7.57 | < 5.00 | 60 | 49.8 | 14 | 0 | – |
| c1cc2cc(-c3n[nH]c4ncc(-c5cncc(CN6CCCC6)c5)cc34)[nH]c2cn1 [Compound 266, 5-(5-(Pyrrolidin-1-ylmethyl)pyridin-3-yl)-3-(1H-pyrrolo[2,3-c]pyridin-2-yl)-1H-pyrazolo[3,4-b]pyridine] | 5.31 | 5.43 | – | < 5.00 | < 5.00 | 36 | – | – | 12.9 | 47.6 |
| CCCCC(=O)Nc1cncc(-c2cnc3[nH]nc(-c4cc5c(-c6ccncc6)cncc5[nH]4)c3c2)c1 [Compound 131, N-(5-(3-(4-(Pyridin-4-yl)-1H-pyrrolo[2,3-c]pyridin-2-yl)-1H-pyrazolo[3,4-b]pyridin-5-yl)pyridin-3-yl)pentanamide] | < 5.00 | < 5.00 | 10 | < 5.00 | < 5.00 | 70 | 3.4 | 18.9 | 27.9 | 24.5 |

These reach a higher pEC50 [1]. Values come first.

| pEC50 [1] | pEC50 [2] | EC50 [4] [nM] | pEC50 [5] | SMILES | pEC50 [3] | Emax [4] [%] | inhibition at 10 µM [1] [%] | inhibition at 10 µM [2] [%] | inhibition at 10 µM [3] [%] | inhibition at 10 µM [5] [%] |
| --- | --- | --- | --- | --- | --- | --- | --- | --- | --- | --- |
| 5.41 | 5.55 | 900 | 5.68 | Fc1cccc(-c2cncc3[nH]c(-c4n[nH]c5ncc(-c6cncc(CNCc7ccccc7)c6)cc45)cc23)c1 [Compound 24, N-Benzyl-1-(5-(3-(4-(3-fluorophenyl)-1H-pyrrolo[2,3-c]pyridin-2-yl)-1H-pyrazolo[3,4-b]pyridin-5-yl)pyridin-3-yl)methanamine] | 5.89 | 65 | – | – | – | – |
| 5.58 | < 5.00 | – | 7.03 | CS(=O)(=O)NCc1cc(F)cc(-c2cncc3[nH]c(-c4n[nH]c5ncc(-c6cncc(NC(=O)C7CC7)c6)cc45)cc23)c1 [Compound 496, N-(5-(3-(4-(3-Fluoro-5-(methylsulfonamidomethyl)phenyl)-1H-pyrrolo[2,3-c]pyridin-2-yl)-1H-pyrazolo[3,4-b]pyridin-5-yl)pyridin-3-yl)cyclopropanecarboxamide] | 5.45 | 23 | – | 49.3 | – | – |
| 5.60 | 5.98 | 30 | 6.88 | CN(C)Cc1cncc(-c2cnc3[nH]nc(-c4cc5c(-c6ccccc6F)cncc5[nH]4)c3c2)c1 [Compound 69, 1-(5-(3-(4-(2-Fluorophenyl)-1H-pyrrolo[2,3-c]pyridin-2-yl)-1H-pyrazolo [3,4-b]pyridin-5-yl)pyridin-3-yl)-N,N-dimethylmethanamine] | 5.72 | 61 | – | – | – | – |
| 5.77 | < 5.00 | – | 7.03 | CCCC(=O)Nc1cncc(-c2cnc3[nH]nc(-c4cc5c(-c6cc(F)cc(CNS(C)(=O)=O)c6)cncc5[nH]4)c3c2)c1 [Compound 493, N-(5-(3-(4-(3-Fluoro-5-(methylsulfonamidomethyl)phenyl)-1H-pyrrolo[2,3-c]pyridin-2-yl)-1H-pyrazolo[3,4-b]pyridin-5-yl)pyridin-3-yl)butyramide] | 5.05 | 37 | – | 46.1 | – | – |
| 5.84 | 5.44 | 2700 | 6.63 | CS(=O)(=O)NCc1cc(F)cc(-c2cncc3[nH]c(-c4n[nH]c5ncc(-c6cccnc6)cc45)cc23)c1 [Compound 480, N-(3-Fluoro-5-(2-(5-(pyridin-3-yl)-1H-pyrazolo[3,4-b]pyridin-3-yl)-1H-pyrrolo [2,3-c]pyridin-4-yl)benzyl)methane sulfonamide] | 5.65 | 66 | – | – | – | – |
| 6.61 | 6.11 | 10 | 5.93 | CCC(=O)Nc1cncc(-c2cnc3[nH]nc(-c4cc5c(-c6cccc(F)c6)cncc5[nH]4)c3c2)c1 [Compound 1, N-(5-(3-(4-(3-Fluorophenyl)-1H-pyrrolo[2,3-c]pyridin-2-yl)-1H-pyrazolo [3,4-b]pyridin-5-yl)pyridin-3-yl)propionamide] | 6.07 | 113 | – | – | – | – |
